# Activity calls are given as the source filed them. The rule behind the calls is not given here.
# How the values were obtained:
# Staphylococcus aureus [1] = assay: Bactericidal activity against Staphylococcus aureus ATCC 25923 at MIC incubated for 45 mins by time kill assay; type: functional, organism-based
# [2] = Retention time of compound by RP-HPLC method; type: physicochemical
# Escherichia coli [3] = assay: Disruption of membrane integrity in Escherichia coli ATCC 25922 by PI staining based analysis; type: functional, organism-based
# Staphylococcus aureus [4] = assay: Bactericidal activity against Staphylococcus aureus ATCC 25923 incubated for 16 to 18 hrs; type: functional; settings: time 16-18 hrs
# Escherichia coli [5] = assay: Bactericidal activity against Escherichia coli ATCC 25922 at MIC incubated for 45 mins by time kill assay; type: functional, organism-based
# Staphylococcus aureus [6] = assay: Antibacterial activity against Staphylococcus aureus ATCC 25923 incubated for 16 to 18 hrs in presence of 10 percent human serum by broth dilution assay; type: functional; settings: time 16-18 hrs
# Staphylococcus aureus [7] = assay: Disruption of plasma membrane integrity in Staphylococcus aureus ATCC 25923 by SYTOX-Green uptake assay; type: functional, organism-based
# Staphylococcus aureus [8] = assay: Antibacterial activity against Staphylococcus aureus ATCC 25923 incubated for 16 to 18 hrs by broth dilution assay; type: functional; settings: time 16-18 hrs
# [9] = Cytotoxicity against rat L6 cells assessed as cell viability at 100 uM incubated for 24 hrs by MTT assay relative to control; type: toxicity, cell-based; settings: L6 cells, read-out: Activity
# Staphylococcus aureus [10] = assay: Antibacterial activity against methicillin-resistant Staphylococcus aureus BAA-44 incubated for 16 to 18 hrs by broth dilution assay; type: functional; settings: time 16-18 hrs
# Escherichia coli [11] = assay: Disruption of plasma membrane integrity in Escherichia coli ATCC 25922 by SYTOX-Green uptake assay; type: functional, organism-based
# [12] = Hemolytic activity in human RBC measured after 40 mins by absorbance based assay; type: toxicity, cell-based, Erythrocyte; settings: human red blood cells
# Klebsiella pneumoniae = assay: Antibacterial activity against Klebsiella pneumoniae ATCC 27736 incubated for 16 to 18 hrs by broth dilution assay; type: functional; settings: time 16-18 hrs
# Staphylococcus aureus [13] = assay: Disruption of membrane integrity in Staphylococcus aureus ATCC 25923 by PI staining based analysis; type: functional, organism-based
# Bacillus subtilis = assay: Antibacterial activity against Bacillus subtilis 6633 incubated for 16 to 18 hrs by broth dilution assay; type: functional; settings: time 16-18 hrs
# [14] = Hemolytic activity in human RBC assessed as disruption of membrane integrity by Alexa Fluor-Annexin V staining based analysis; type: toxicity, cell-based; settings: erythrocyte
# [15] = tested on: Mycolicibacterium smegmatis; assay: Antitubercular activity against Mycobacterium smegmatis incubated for 24 hrs by rezasurin dye based assay; type: functional
# Pseudomonas aeruginosa = assay: Antibacterial activity against Pseudomonas aeruginosa ATCC BAA-427 incubated for 16 to 18 hrs by broth dilution assay; type: functional; settings: time 16-18 hrs
# Escherichia coli [16] = assay: Antibacterial activity against Escherichia coli ATCC 25922 incubated for 16 to 18 hrs in presence of 10 percent human serum by broth dilution assay; type: functional; settings: time 16-18 hrs
# Escherichia coli [17] = assay: Bactericidal activity against Escherichia coli ATCC 25922 incubated for 16 to 18 hrs; type: functional; settings: time 16-18 hrs
# Escherichia coli [18] = assay: Antibacterial activity against Escherichia coli ATCC 25922 incubated for 16 to 18 hrs by broth dilution assay; type: functional; settings: time 16-18 hrs
# Staphylococcus aureus [19] = assay: Induction of membrane depolarization in Staphylococcus aureus ATCC 25923 by diSC3-5 dye based analysis; type: functional, organism-based
# Staphylococcus aureus [20] = assay: Antibacterial activity against methicillin-resistant Staphylococcus aureus 33591 incubated for 16 to 18 hrs by broth dilution assay; type: functional; settings: time 16-18 hrs
# Escherichia coli [21] = assay: Induction of membrane depolarization in Escherichia coli ATCC 25922 by diSC3-5 dye based analysis; type: functional, organism-based
# [22] = Cytotoxicity against mouse 3T3-L1 cells assessed as cell viability at 100 uM incubated for 24 hrs by MTT assay relative to control; type: toxicity, cell-based; settings: 3T3-L1 cells, read-out: Activity
# [23] = Hemolytic activity in human RBC at 100 uM measured after 40 mins by absorbance based assay relative to control; type: toxicity, cell-based, Erythrocyte; settings: human red blood cells, read-out: Activity
# Staphylococcus aureus [24] = assay: Induction of cell membrane damage in Staphylococcus aureus ATCC 25923 at 3 times MIC incubated for 60 mins by SEM analysis; type: functional, organism-based
# Escherichia coli [25] = assay: Induction of cell membrane damage in Escherichia coli ATCC 25922 at 3 times MIC incubated for 60 mins by SEM analysis; type: functional, organism-based
Molecule,Retention_time [2] [min],MIC (Staphylococcus aureus [8]) [µM],MIC (Staphylococcus aureus [10]) [µM],HC50 at 40 min [12] [mM],MIC (Klebsiella pneumoniae) [µM],MIC (Bacillus subtilis) [µM],MIC (Pseudomonas aeruginosa) [µM],MIC (Escherichia coli [18]) [µM],MIC (Staphylococcus aureus [20]) [µM],further results
H-KVLGKVLGKVLGKVLG-OH,20.12,7.8,3.9,2,7.8,15.6,15.6,3.9,7.8,"Activity (Staphylococcus aureus [1]): Active; Activity (Escherichia coli [3]): Active; MBC (Staphylococcus aureus [4]): 12.6 µM; Activity (Escherichia coli [5]): Active; MIC (Staphylococcus aureus [6]): 12.6 µM; Activity (Staphylococcus aureus [7]): Active; viability at 24 h, 100 µM [9]: 75%; Activity (Escherichia coli [11]): Active; Activity (Staphylococcus aureus [13]): Active; Activity [14]: Non-toxic; MIC [15]: > 10 µM; MIC (Escherichia coli [16]): 3.9 µM; MBC (Escherichia coli [17]): 3.9 µM; Activity (Staphylococcus aureus [19]): Active; Activity (Escherichia coli [21]): Active; viability at 24 h, 100 µM [22]: 75%"
H-KVKVKVKVKVKV-OH,10.81,36.2,18.1,0.118,72.4,9.1,36.2,18.1,36.2,"hemolysis at 40 min, 100 µM [23]: 42%"
H-RLVRLVRLVRLV-OH,19.25,4.2,4.2,2,8.4,2.1,8.4,4.2,4.2,"Activity (Staphylococcus aureus [1]): Active; Activity (Escherichia coli [3]): Active; MBC (Staphylococcus aureus [4]): 8.4 µM; Activity (Escherichia coli [5]): Active; MIC (Staphylococcus aureus [6]): 16.8 µM; Activity (Staphylococcus aureus [7]): Active; viability at 24 h, 100 µM [9]: 75%; Activity (Escherichia coli [11]): Active; Activity (Staphylococcus aureus [24]): Active; Activity (Staphylococcus aureus [13]): Active; Activity [14]: Non-toxic; Activity (Escherichia coli [25]): Active; MIC [15]: 5 µM; MIC (Escherichia coli [16]): 16.8 µM; MBC (Escherichia coli [17]): 8.4 µM; Activity (Staphylococcus aureus [19]): Active; Activity (Escherichia coli [21]): Active; viability at 24 h, 100 µM [22]: 75%"
CO[C@H]1/C=C/O[C@@]2(C)Oc3c(C)c(O)c4c(O)c(c(/C=N/N5CCN(C)CC5)c(O)c4c3C2=O)NC(=O)/C(C)=C\C=C\[C@H](C)[C@H](O)[C@@H](C)[C@@H](O)[C@@H](C)[C@H](OC(C)=O)[C@@H]1C [RIFAMPIN],,,,,,,,,,MIC [15]: 0.25 µM
H-KVKVKVKVKV-OH,10.88,21.7,21.7,0.283,43.4,10.9,21.7,21.7,43.4,"hemolysis at 40 min, 100 µM [23]: 18%"
H-LGRLLGRLLGRLLGRL-OH,20.87,1.8,1.8,0.051,1.8,1.8,3.5,1.8,1.8,"hemolysis at 40 min, 100 µM [23]: 95%"
H-VLGRLVLGRLVLGRL-OH,19.07,7.6,61.2,2,> 122,> 122,> 122,7.6,122,
H-RLRLRLRLRLRLRL-OH,16.72,3.3,13.1,0.249,26.2,3.3,13.1,3.3,13.1,"hemolysis at 40 min, 100 µM [23]: 20%"
H-VLGRLVVLGRLV-OH,17.91,> 155,> 155,2,> 155,> 155,> 155,77.4,> 155,
H-GRLGRLGRLGRL-OH,20.87,4.7,18.9,2,> 151,18.9,75.6,18.9,18.9,
H-LGRLGRLGRLGRLGR-OH,16.23,1.9,60.6,2,> 121,30.3,60.6,1.9,> 121,
H-KVLGKVLGKVLG-OH,15.26,> 165,> 165,2,> 165,> 165,> 165,> 165,> 165,
H-LGRLVLGRLV-OH,16.21,183,> 183,2,> 183,> 183,> 183,91.4,> 183,
H-LGRLGRLGRLGR-OH,20.45,> 151,> 151,2,> 151,151,> 151,15.5,> 151,
H-VLGRLVLGRL-OH,16.21,183,> 183,2,183,> 183,183,183,> 183,
H-KVLGRKVLGR-OH,10.61,178,> 178,2,> 178,> 178,> 178,178,> 178,
H-RLRLRLRLRLRL-OH,15.99,3.8,15.3,0.279,30.6,3.8,15.3,1.9,15.3,"hemolysis at 40 min, 100 µM [23]: 17%"
CC1(C)S[C@@H]2[C@H](NC(=O)[C@H](N)c3ccccc3)C(=O)N2[C@H]1C(=O)O [AMPICILLIN],,3.1,25,,100,1.6,25,12.5,12.5,
H-KVKVKVKVKVKVKV-OH,10.73,7.8,15.5,0.062,7.8,3.8,31.1,7.8,15.5,"hemolysis at 40 min, 100 µM [23]: 80%"
H-VLGRVLGRVLGR-OH,15.4,> 155,> 155,2,> 155,> 155,> 155,> 155,> 155,
H-KVLGRKVLGRKVLGR-OH,11.73,29.8,> 119,2,> 119,> 119,> 119,29.8,> 119,
H-LGRLVLGRLVLGRLV-OH,18.77,15.3,61.2,2,> 122,> 122,> 122,7.6,> 122,
H-GRLVGRLVGRLV-OH,13.4,> 155,> 155,2,155,> 155,155,155,> 155,
H-KVLGRLKVLGRL-OH,16.81,> 147,> 147,2,> 147,> 147,> 147,74,> 147,

# Reference: ChEMBL document CHEMBL6087460, “Generating a Peptide Library Using the Repeats of Amino Acid Scaffolds Created by Sliding the Framework of a 7-mer Human Chemerin Segment and Discovery of Potent Antibacterial and Antimycobacterial Peptides” (J Med Chem, 2025)
